What was measured:
[1] = excess molar enthalpy (molar enthalpy of mixing); xn = mol fraction of the nth substance listed; conditions: Liquid, Flow calorimetry
[2] = Liquid, Closed cell (Static) method

CC(=O)N(C)C [N,N-dimethylethanamide] + Cc1ccccc1
[1]
Conditions | excess molar enthalpy [kcal/mol]
363.15 K, 1955 kPa, x2 = 0.0436 | 0.00378
363.15 K, 1955 kPa, x2 = 0.0878 | 0.00686
363.15 K, 1955 kPa, x2 = 0.1327 | 0.0102
363.15 K, 1955 kPa, x2 = 0.1781 | 0.0134
363.15 K, 1955 kPa, x2 = 0.2242 | 0.0163
363.15 K, 1955 kPa, x2 = 0.2709 | 0.0193
363.15 K, 1955 kPa, x2 = 0.3182 | 0.0232
363.15 K, 1955 kPa, x2 = 0.3662 | 0.0263
363.15 K, 1955 kPa, x2 = 0.4149 | 0.0292
363.15 K, 1955 kPa, x2 = 0.4643 | 0.0318
363.15 K, 1955 kPa, x2 = 0.5144 | 0.0344
363.15 K, 1955 kPa, x2 = 0.5652 | 0.0361
363.15 K, 1955 kPa, x2 = 0.6168 | 0.0368
363.15 K, 1955 kPa, x2 = 0.6691 | 0.038
363.15 K, 1955 kPa, x2 = 0.7222 | 0.0385
363.15 K, 1955 kPa, x2 = 0.7761 | 0.0375
363.15 K, 1955 kPa, x2 = 0.8308 | 0.0349
363.15 K, 1955 kPa, x2 = 0.8864 | 0.0289
363.15 K, 1955 kPa, x2 = 0.9428 | 0.0178
413.15 K, 1824 kPa, x2 = 0.022 | 0.00251
413.15 K, 1824 kPa, x2 = 0.0441 | 0.00528
413.15 K, 1824 kPa, x2 = 0.0887 | 0.00963
413.15 K, 1824 kPa, x2 = 0.1338 | 0.014
413.15 K, 1824 kPa, x2 = 0.1796 | 0.0186
413.15 K, 1824 kPa, x2 = 0.2259 | 0.0225
413.15 K, 1824 kPa, x2 = 0.2728 | 0.0265
413.15 K, 1824 kPa, x2 = 0.3204 | 0.0311
413.15 K, 1824 kPa, x2 = 0.3686 | 0.0354
413.15 K, 1824 kPa, x2 = 0.4174 | 0.0406
413.15 K, 1824 kPa, x2 = 0.4668 | 0.0449
413.15 K, 1824 kPa, x2 = 0.5169 | 0.0485
413.15 K, 1824 kPa, x2 = 0.5677 | 0.0523
413.15 K, 1824 kPa, x2 = 0.6192 | 0.0554
413.15 K, 1824 kPa, x2 = 0.6714 | 0.0571
413.15 K, 1824 kPa, x2 = 0.7243 | 0.0576
413.15 K, 1824 kPa, x2 = 0.7779 | 0.0557
413.15 K, 1824 kPa, x2 = 0.8323 | 0.0497
413.15 K, 1824 kPa, x2 = 0.8874 | 0.0406
413.15 K, 1824 kPa, x2 = 0.9433 | 0.0246
413.15 K, 1824 kPa, x2 = 0.9715 | 0.0134

CC(=O)N(C)C [N,N-dimethylethanamide] + c1ccccc1
[1], 413.15 K, 1824 kPa
Conditions | excess molar enthalpy [kcal/mol]
x2 = 0.0261 | -0.0033
x2 = 0.0522 | -0.00617
x2 = 0.1042 | -0.0116
x2 = 0.1817 | -0.0187
x2 = 0.2586 | -0.0239
x2 = 0.3604 | -0.0277
x2 = 0.4361 | -0.0275
x2 = 0.5114 | -0.0241
x2 = 0.5861 | -0.0193
x2 = 0.6603 | -0.0129
x2 = 0.7584 | -0.00356
x2 = 0.8315 | 0.00311
x2 = 0.904 | 0.00703
x2 = 0.9521 | 0.00629
x2 = 0.9761 | 0.00411

c1ccccc1 [benzene]
Conditions | vapor or sublimation pressure [kPa]
[2], 328.15 K | 43.65

ClCCl [dichloromethane]
Conditions | vapor or sublimation pressure [kPa]
[2], 333.15 K | 197.94

ClCCl [dichloromethane] + CC(=O)N(C)C
[1], 323.15 K, 1273 kPa
Conditions | excess molar enthalpy [kcal/mol]
x1 = 0.0709 | -0.101
x1 = 0.1387 | -0.188
x1 = 0.2037 | -0.265
x1 = 0.2659 | -0.328
x1 = 0.3257 | -0.379
x1 = 0.3831 | -0.412
x1 = 0.4383 | -0.438
x1 = 0.4914 | -0.454
x1 = 0.5425 | -0.458
x1 = 0.5917 | -0.456
x1 = 0.6391 | -0.44
x1 = 0.6849 | -0.417
x1 = 0.7291 | -0.386
x1 = 0.7718 | -0.348
x1 = 0.813 | -0.303
x1 = 0.8529 | -0.252
x1 = 0.8914 | -0.195
x1 = 0.9288 | -0.132
x1 = 0.965 | -0.0681

CCO [ethanol]
Conditions | vapor or sublimation pressure [kPa]
[2], 353.15 K | 108.42

CCOC(C)=O [ethyl acetate]
Conditions | vapor or sublimation pressure [kPa]
[2], 353.15 K | 111.76

CCCCCCC [heptane]
Conditions | vapor or sublimation pressure [kPa]
[2], 353.15 K | 57.09

CCCCCC [hexane]
Conditions | vapor or sublimation pressure [kPa]
[2], 353.15 K | 142.4

CO [methanol]
Conditions | vapor or sublimation pressure [kPa]
[2], 343.15 K | 125.65

C=CCCCCCC [oct-1-ene]
[2]
Conditions | vapor or sublimation pressure [kPa]
328.15 K | 10.12
363.15 K | 39.2

C=CCCCCCC [oct-1-ene] + CC(=O)N(C)C
[1], 363.15 K, 1858 kPa
Conditions | excess molar enthalpy [kcal/mol]
x1 = 0.03 | 0.0437
x1 = 0.0612 | 0.0906
x1 = 0.0938 | 0.135
x1 = 0.1279 | 0.176
x1 = 0.1636 | 0.213
x1 = 0.201 | 0.249
x1 = 0.2401 | 0.281
x1 = 0.2812 | 0.31
x1 = 0.3244 | 0.336
x1 = 0.3698 | 0.357
x1 = 0.4177 | 0.37
x1 = 0.4682 | 0.379
x1 = 0.5215 | 0.383
x1 = 0.5779 | 0.38
x1 = 0.6377 | 0.368
x1 = 0.7013 | 0.344
x1 = 0.7688 | 0.304
x1 = 0.8408 | 0.243
x1 = 0.9177 | 0.149

Cc1ccccc1 [toluene]
Conditions | vapor or sublimation pressure [kPa]
[2], 353.15 K | 38.92

Reference: the NIST ThermoML archive (doi:10.1021/acs.jced.7b00119)
